According to patent US8207137B2, “Method of inhibiting angiogenesis or invasion or formation of metastases” (INSERM, priority 2001, dated 2012):

Legend:
HMEC-1 cells = assay: Formation of capillary structures in fibrin gel, Cytodex beads model; format: cell-based, human
Procedure: The second model used beads on the order of 150 μm according to the technique described by Nehl et al. The cells used were HMEC-1 since CPAE could not be used in this model. The HMEC-1 cells cannot, however, be employed in the previously described model. The HMEC-1 cells adhere to the Cytodex 3 beads (Sigma) when the cells are incubated with the beads in the complete medium for 4 h at 37° C. The beads were then resuspended in a large volume of complete medium to have 30 cells/beads and agitated for 5 minutes every 30 minutes at 30 rpm for 12 h, followed by a continuous culture at the same rate for 4 days. When the entire surface of the beads was covered by cells, the beads were centrifuged at 800 g for 5 minutes to concentrate and incorporate them in a fibrin gel the same as that described for the preceding model, and the same as the methods of quantification and analysis of the results. In contrast to the model used for the CPAE, the capillary structures only appeared after 3 days of culture at 37° C.

3T3 = assay: Cell proliferation, tritiated thymidine incorporation; format: cell-based; details: 3T3, murine fibroblasts, mean±SEM
Procedure: (§1) The cells were cultured at the rate of 20,000 cells per well (96-well plate, Greiner) in the complete medium. After 24 h, the cells were cultured in a medium containing a concentration lower by half than that corresponding to the complete medium to induce the cell in phase G0/G1 of proliferation for 24 supplementary hours. The cells were then cultured for 30 h with complete medium in the presence or without the presence of AMEP. Tritiated thymidine (1 μCi per well) was then added to the cells and incubated for 18 hours. Incorporation of the tritiated thymidine by the cells was quantified by filter paper according to the protocol described for the use of a Skatron (Skatron, Lier, Norway). Radioactivity was then determined by counting after addition of scintillation liquid. The results were expressed as a percentage in relation to the control.

C51 = assay: as above; format: cell-based; details: C51, murine cancer cells, mean±SEM
Procedure: as §1

MDA-MB-231 = assay: as above; format: cell-based; details: MDA-MB-231, human cancer cells, mean±SEM
Procedure: as §1

HMVEC-d = assay: as above; format: cell-based; details: human endothelial cells, mean±SEM
Procedure: as §1

HMVEC = assay: as above; format: cell-based; details: human endothelial cells, mean±SEM
Procedure: as §1

CPAE cells = assay: Formation of capillary structures in fibrin gel, cell aggregates model; format: cell-based, bovine; details: 5 μg/ml or 10 μg/ml, 3 days of incubation
Procedure: One of the models used the aggregates of CPAE cells according to the method described by Pepper et al., 1991. In brief, 10,000 CPAE were aggregated for 24 hours on 2% agarose on a 96-well plate. Three aggregates collected and incorporated in a fibrin gel: purified fibrinogen (3 mg/ml; Kabi) was dialyzed against MEM medium then mixed with 20% of FCS, 1% of L-glutamine, 1% of penicillin/streptomycin, 2 μM of aprotinin and AMEP at the desired concentration. Human thrombin (1 IU/ml; Sigma) was then added to obtain a fibrin gel to the surface of which was added the complete medium supplemented by aprotinin (2 μM), with this medium being changed every three days. Formation of capillary structures could be observed after 24 hours of culture. These capillaries were photographed under reverse microscope and the size of these structures was measured on the photographs. The statistical analysis (Mann-Whitney method) made it possible to determine whether the size of these structures was different.

[1] = system: MDA MB 231 subcutaneous solid tumors; assay: Quantification of tumoral angiogenesis (CD31 immunohistochemistry and image analysis); format: in vivo, nude mice
Procedure: The tumor tissues were fixed in ethanol. Sections of 5 μm were prepared in paraffin. The endogenous peroxidase was extinguished by 3% of H2O2 for 10 minutes so that the sections could be used in immunohistochemistry. After washing the sections with distilled water then saturation with 1:10 Optimax serum (BioGenex, San Ramon, Calif.) for 10 minutes, the slides were incubated for 1 h with an anti-CD31 rat antibody (endothelial cell adhesion molecule) at 1:50. After two washings with Optimax for 4 minutes, the slides were incubated with an anti-rat goat polyclonal antibody coupled to biotin (1/50) followed by two 4-minute washings with Optimax. The slides were then treated with a DAB chromogenic substrate for 10 minutes, washed with distilled water, counterstained with Mayer's hematoxylin and mounted on Pertex. All of the slides were immunotagged and counterstained on the same day to ensure a standardized intensity of the tagging.
For each animal, a representative histological sample of the sections tagged with CD31 was subjected to image analysis using an AxiophotZeiss microscope (Germany) and a Sony 3CCD camera (resolution 768×576 pixels). Selection of an enlargement×100 allowed digitization of the totality of the sample. […] The images were analyzed with a specific Linux-based program producing a quantitative index from 0 to 255. […]

AMEP: disintegrin domain of human metargidin (Met-420 to Glu-511, SEQ ID NO. 2), 91 amino acids, 9.7 kDa; recombinant or expressed in vivo by gene electrotransfer
reduction in the size of the tubes (capillary structures) (HMEC-1 cells; HMEC-1 on beads in fibrin gel, 5 μg/ml, after 10 days): 90% | effect on formation of capillary structures (HMEC-1 cells; HMEC-1 on beads in fibrin gel, 5 μg/ml, after three days of culture): inhibitory effect | formation of capillary structures (HMEC-1 cells; model using HMEC-1, in the presence of AMEP): total inhibition | % inhibition of cell proliferation by AMEP (5 μg/ml) (3T3): 9.1 ± 2.2% | % inhibition of cell proliferation by AMEP (5 μg/ml) (C51): 0.5 ± 1.1% | % inhibition of cell proliferation by AMEP (5 μg/ml) (MDA-MB-231): 17.5 ± 0.5% | % inhibition of cell proliferation by AMEP (5 μg/ml) (HMVEC-d): 54.2 ± 2.1% | % inhibition of cell proliferation by AMEP (5 μg/ml) (HMVEC): 52.6 ± 3.1% | effect on capillary structures (CPAE cells): disorganization of capillary structures | statistical index of tumor vascularization, Mean ([1]; CD31-tagged tumor sections, index scale 0 to 255, control group 2.96): 1.38 | inhibition of the number of vessels within the tumors ([1]; tumors of nude mice treated with AMEP versus control): 53.4%
